Test results from PubChem BioAssay (NCI).
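Cells were grown in 96-well plates and exposed to each compound for 48 hours at five concentrations; endpoints were interpolated linearly between bracketing concentrations, or set to the highest concentration if not reached. The concentration for full growth arrest is given as TGI.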 Square brackets hold non-standard residues; d marks the D form. Peptide text beside a SMILES is read from it. Phe(4-NO2) = N[CH](Cc1ccc([N+](=O)[O-])cc1)C(=O)O

Tests used:
Assay in all cases: NCI tumour cell line growth inhibition, 48 h
OVCAR-4 ovarian = system: OVCAR-4 ovarian
MALME-3M melanoma = system: MALME-3M melanoma
A549 NSCLC = system: A549 NSCLC
SNB-75 CNS = system: SNB-75 CNS
UACC-257 melanoma = system: UACC-257 melanoma
786-0 renal = system: 786-0 renal
OVCAR-8 ovarian = system: OVCAR-8 ovarian
M14 melanoma = system: M14 melanoma
SR leukemia = system: SR leukemia
SF-295 CNS = system: SF-295 CNS
COLO 205 colon = system: COLO 205 colon
NCI-H23 lung = system: NCI-H23 lung
CCRF-CEM leukemia = system: CCRF-CEM leukemia
KM12 colon = system: KM12 colon
ACHN renal = system: ACHN renal
SN12C renal = system: SN12C renal
TK-10 renal = system: TK-10 renal
HS 578T breast = system: HS 578T breast
UO-31 renal = system: UO-31 renal
MDA-MB-435 = system: MDA-MB-435
MCF7 breast = system: MCF7 breast
MOLT-4 leukemia = system: MOLT-4 leukemia
IGROV1 ovarian = system: IGROV1 ovarian
DU-145 prostate = system: DU-145 prostate
U251 CNS = system: U251 CNS
MDA-MB-231 breast = system: MDA-MB-231 breast
SK-MEL-2 melanoma = system: SK-MEL-2 melanoma
SK-MEL-5 melanoma = system: SK-MEL-5 melanoma
EKVX NSCLC = system: EKVX NSCLC
HCT-116 colon = system: HCT-116 colon
RXF 393 renal = system: RXF 393 renal
SW-620 colon = system: SW-620 colon
HT29 colon = system: HT29 colon
SK-MEL-28 melanoma = system: SK-MEL-28 melanoma
SK-OV-3 ovarian = system: SK-OV-3 ovarian
SF-268 CNS = system: SF-268 CNS
RPMI-8226 leukemia = system: RPMI-8226 leukemia
NCI-H460 lung = system: NCI-H460 lung
LOX IMVI melanoma = system: LOX IMVI melanoma
NCI-H522 lung = system: NCI-H522 lung
OVCAR-5 ovarian = system: OVCAR-5 ovarian
MDA-N = system: MDA-N
NCI/ADR-RES ovarian = system: NCI/ADR-RES ovarian
CAKI-1 renal = system: CAKI-1 renal
SNB-19 CNS = system: SNB-19 CNS
PC-3 prostate = system: PC-3 prostate
OVCAR-3 ovarian = system: OVCAR-3 ovarian
HOP-62 NSCLC = system: HOP-62 NSCLC
A498 renal = system: A498 renal
HCT-15 colon = system: HCT-15 colon
UACC-62 melanoma = system: UACC-62 melanoma
NCI-H226 lung = system: NCI-H226 lung
HOP-92 NSCLC = system: HOP-92 NSCLC
K-562 leukemia = system: K-562 leukemia
BT-549 breast = system: BT-549 breast
SF-539 CNS = system: SF-539 CNS

Measured: TGI

COC(=O)CCC(NC(=O)C(CCC(=O)OC)NC(=O)C(CCC(=O)OC)NC(=O)C(CCC(=O)OC)NC(=O)C(CCC(=O)OC)NC(=O)C(Cc1ccc([N+](=O)[O-])cc1)NC(=O)C(CCC(=O)OC)NC(=O)C(CCC(=O)OC)NC(=O)C(CCC(=O)OC)NC(=O)C(CCC(=O)OC)NC(=O)C(CCC(=O)OC)NC(C)=O)C(N)=O (stereo not drawn) (Ac-E(OMe)E(OMe)E(OMe)E(OMe)E(OMe)[Phe(4-NO2)]E(OMe)E(OMe)E(OMe)E(OMe)E(OMe)-NH2; configuration not given here)
not listed: PC-3 prostate | OVCAR-3 ovarian | HOP-62 NSCLC | A498 renal | HCT-15 colon | UACC-62 melanoma | NCI-H226 lung | HOP-92 NSCLC | K-562 leukemia | BT-549 breast | SF-539 CNS
> 100 µM: all other assays above

CC1=CC2=C(C#N)C(=O)OC2(C)C(c2ccccc2)C1 (stereo not drawn)
not listed: SR leukemia | COLO 205 colon | NCI-H23 lung | CCRF-CEM leukemia | MCF7 breast | SK-MEL-5 melanoma | RXF 393 renal | CAKI-1 renal
> 100 µM: all other assays above
